In ChEMBL document CHEMBL1149570, “Thiotetrazole alkynylacetanilides as potent and bioavailable non-nucleoside inhibitors of the HIV-1 wild type and K103N/Y181C double mutant reverse transcriptases” (Bioorg Med Chem Lett, 2007) one finds AUC, bioavailability and Cmax data, which are given here for three compounds.

Common to all, as to type: ADME, organism-based
Data set [1] can be described thus: AUC in rat at 5 mg/kg, po. Also noted: dose 5 mg/kg, route oral. The following applies: plasma.
Data set [2] is described as follows: Oral bioavailability in rat at 5 mg/kg. The note with it: in vivo.
A short description of data set [3]: Cmax in rat at 5 mg/kg, po. Also noted: dose 5 mg/kg, route oral. The note with it: in vivo.

In general, AUC refers to concentration integrated over time. Read a low AUC as low exposure. In general, bioavailability refers to the share of a dose that reaches the circulation, judged against a reference dose that is usually intravenous. Low readings indicate little systemic uptake, high ones much systemic uptake. One may read the Cmax as the peak of the concentration-time curve. Regarding `CC(C)(C#Cc1ccc(NC(=O)CSc2nnnn2-c2ccc(C3CC3)cc2Cl)c(Cl)c1)CNCC(=O)O`, in data set [1], the exposure (AUC) came to 0.84 µM·h. This compound also displayed a bioavailability in data set [2] of 29%. This compound displayed a Cmax in data set [3] of 260 nM.

`CC(C)(C#Cc1ccc(NC(=O)CSc2nnnn2-c2ccc(C3CC3)cc2Cl)c(Cl)c1)C(=O)O`: the AUC in data set [1] is 9.5 µM·h. This compound had a bioavailability in data set [2] of 66%. In addition, in data set [3], the highest level (Cmax) was 5000 nM.

In the case of `CC(C)(C#Cc1ccc(NC(=O)CSc2nnnn2-c2ccc(C3CC3)cc2Cl)c(Cl)c1)NC(=O)CN`, the AUC in data set [1] was 1 µM·h. The bioavailability in data set [2] is 21%. In addition, the Cmax in data set [3] is 280 nM.
